Experimental findings from patent US20110166226A1, “PROCESS FOR OBTAINING AN EXTRACT RICH IN ROSMARINIC ACID (RA) FROM THE PLANT ORIGANUM VULGARE AND ITS USE FOR THE TREATMENT OF DIABETES” (ACEF S/A, priority 2008, published 2011) are described below.

Holding throughout (assay type): in vivo, rat
One assay has as its system normal rats. The assay can be described thus: Glycemic level in normal rats.
Assay [1] deals with diabetic rats induced by alloxan. The assay can be described thus: Glycemia monitored for 4 h (60, 120 and 240 minutes) in diabetic rats, chlorpropamide as positive control (FIG. 8). The note with it: 25 mg/kg v.o., chlorpropamide 40 mg/kg as positive control (FIG. 8). As for the experimental part: FIG. 8—Graphic of the variation in plasmatic levels of glycemia (mg/dL), observed in the different experimental groups: Diabetic treated with hydroalcoholic extract (DTE, 250 mg/kg, v.o.), Diabetic treated with Rosmarinic Acid (DTRA, 25 mg/kg, v.o.), Diabetic treated with drugs in the market (Clorpropamida, 40 mg/kg), Diabetic Control (DC) and Normoglycemic Control (NC).
The induction of diabetes in animals was done by using alloxan. The animals stayed in fasting for 24 hours before receiving injections of alloxan, so that the animals became more susceptive to diabetes. After a pilot study, the dose of alloxan that was used was 40 mg/kg injected via intravenous in caudal vein. Alloxan was diluted in sodium citrate 0.05M pH 4.5 and the injected volume was 500. During the four hours after the injection, the animals received glucose solution 5% via oral (ad libidum) in order to prevent from seizures and death, what is common in hypoglycemia. On the first two days after diabetes induction, the animals received an insulin injection (100 μl—diluted 1/10) at every 24 hs via subcutaneous (FIG. 3). This procedure guarantees animals to survive during the disease acute phase enabling the study.
In FIG. 8, glycemic levels were monitored after 60, 120 and 240 minutes. […]

The test system is the same in assay [2]. The assay can be described thus: Hypoglycemiant activity in diabetic rats induced by alloxan, 15 days oral treatment then follow-up without treatment. The note with it: for plasmatic levels of glycemia: mean ± EPM. The method, then:
The induction of diabetes in animals was done by using alloxan. The animals stayed in fasting for 24 hours before receiving injections of alloxan, so that the animals became more susceptive to diabetes. After a pilot study, the dose of alloxan that was used was 40 mg/kg injected via intravenous in caudal vein. Alloxan was diluted in sodium citrate 0.05M pH 4.5 and the injected volume was 500. During the four hours after the injection, the animals received glucose solution 5% via oral (ad libidum) in order to prevent from seizures and death, what is common in hypoglycemia. On the first two days after diabetes induction, the animals received an insulin injection (100 μl—diluted 1/10) at every 24 hs via subcutaneous (FIG. 3). This procedure guarantees animals to survive during the disease acute phase enabling the study. […] To use in the animals, it was employed corresponding doses, considering animals body mass, which is about 250 mg/kg of hydroalcoholic extract, 55 mL of infusion/rat and 25 mg/kg of RA. The animals received treatment via oral (v.o.), being maintained during a period of 40 days. The first 15 days evaluated by receiving treatment and the subsequent days with no treatment, so that it was possible to evaluate the potential to maintain the glycemic level. The obtained results are represented in the charts from FIGS. 4 to 7. As it can be observed in FIG. 4, the glycemic levels were monitored during 15 alternate days. After 15 days, the treatment was suspended (ST) and it was evaluated during 5, 10, 15 and 40 days. The data represent the mean±EPM, P<0.0001, when compared to the answer obtained for the groups DTE versus CD and CD versus CN (Anova followed by the Turkey-Kramer test). In FIG. 5, glycemic levels were monitored during 15 alternate days. After 15 days, the treatment was suspended (ST) and it was evaluated during 5, 10, 15 and 40 days. The data represent the mean±EPM, P<0.0001, when compared to the answer obtained for the groups DTAR versus CD and CD versus CN (Anova followed by the Turkey-Kramer test). In FIG. 6, glycemic levels were monitored during 15 alternate days. After 15 days, the treatment was suspended (ST) and it was evaluated during 5, 10, 15 and 40 days. The data represent the mean±EPM, P<0.0001, when compared to the answer obtained for the groups DTC versus CD and CD versus CN (Anova followed by the Turkey-Kramer test). In FIG. 7, glycemic levels were monitored during 15 alternate days. After 15 days, the treatment was suspended (ST) and it was evaluated during 5, 10, 15 and 40 days. The data represent the mean±EPM, P<0.0001, when compared to the answer obtained for the groups treated versus CD. (Anova followed by the Turkey-Kramer test).

SMILES strings stand for the structures.

For `O=C(/C=C/c1ccc(O)c(O)c1)O[C@H](Cc1ccc(O)c(O)c1)C(=O)O` [RA, rosmarinic acid], the “effect on glycemic level in normal rats (result in words)” value in the assay on normal rats is recorded as “not reducing the glycemic level in normal rats”. For the same compound, the “effectiveness on glycemia monitored for 4 h (result in words)” value in assay [1] is “it was verified the effectiveness”. In assay [2] (25 mg/kg v.o., 15 days treatment, followed to 40 days without treatment (FIG. 5)), the “maintenance of the reduced glycemic level (result in words)” value was “in addition of reducing, it kept the glycemic level to the end of the experience”. The “plasmatic levels of glycemia” value in assay [2] (5 ST: 5 days with no treatment after the 15 days of treatment) came to 112.5 ± 5.00 mg/dL; in assay [2] (10 ST: 10 days with no treatment after the 15 days of treatment) it was 101.5 ± 19.13 mg/dL; in assay [2] (15 ST: 15 days with no treatment after the 15 days of treatment) it was 103.5 ± 10.78 mg/dL; in assay [2] (40 ST: 40 days with no treatment after the 15 days of treatment), 109.3 ± 9.87 mg/dL; in assay [2] (evaluated day 0, v.o.: infusion 55 mL/rat, extract 250 mg/kg, RA 25 mg/kg), 362.6 ± 101.52 mg/dL; in assay [2] (evaluated day 1 of treatment, v.o.: infusion 55 mL/rat, extract 250 mg/kg, RA 25 mg/kg), 136.6 ± 44.96 mg/dL. For the same compound, the “plasmatic levels of glycemia” value was 114.0 ± 8.46 mg/dL in assay [2] (evaluated day 3 of treatment, v.o.: infusion 55 mL/rat, extract 250 mg/kg, RA 25 mg/kg); 71.5 ± 22.66 mg/dL in assay [2] (evaluated day 5 of treatment, v.o.: infusion 55 mL/rat, extract 250 mg/kg, RA 25 mg/kg); 124.5 ± 27.75 mg/dL in assay [2] (evaluated day 7 of treatment, v.o.: infusion 55 mL/rat, extract 250 mg/kg, RA 25 mg/kg); 100.1 ± 12.31 mg/dL in assay [2] (evaluated day 9 of treatment, v.o.: infusion 55 mL/rat, extract 250 mg/kg, RA 25 mg/kg); 108.0 ± 13.31 mg/dL in assay [2] (evaluated day 11 of treatment, v.o.: infusion 55 mL/rat, extract 250 mg/kg, RA 25 mg/kg); 92.1 ± 16.89 mg/dL in assay [2] (evaluated day 13 of treatment, v.o.: infusion 55 mL/rat, extract 250 mg/kg, RA 25 mg/kg). The “plasmatic levels of glycemia” value in assay [2] (evaluated day 15 of treatment, v.o.: infusion 55 mL/rat, extract 250 mg/kg, RA 25 mg/kg) is given as 102.0 ± 12.60 mg/dL. For the same compound, the “effect on level of plasmatic glycemic in diabetic rats (result in words)” value in assay [2] (diabetic rats) was “reducing the level of plasmatic glycemic in diabetic rats”.
